Earlier results as cited in patent publication US20060140985A1, “Lansoprazole formulations and related processes and methods” (priority 2003, published 2006).
Like-named read-outs stand apart in the source and are kept apart here.

Legend:
[1] = not given; remark: listed apart in the source
[2] = not given; remark: listed apart in the source
gastric acid secretion = settings: in vivo

SMILES: Cc1c(OCC(F)(F)F)ccnc1C[S+]([O-])c1nc2ccccc2[nH]1 (centres unmarked) [Lansoprazole, 2-[[[3-methyl-4 (2,2,2-trifluoroethoxy)-2-pyridyl]methyl]sulfinyl]benzimidazole]
- solubility (acetonitrile): slightly soluble
- solubility (dichloromethane): slightly soluble
- solubility (dimethylformamide): freely soluble
- solubility (ethanol): sparingly soluble
- solubility (ether): very slightly soluble
- solubility (ethyl acetate): slightly soluble
- solubility (hexane): practically insoluble
- solubility (methanol): soluble
- solubility (water): practically insoluble
- metabolism ([1]; liver): extensively metabolized in the liver
- plasma elimination half-life ([1]; plasma): less than two hours
- degradation in aqueous solution ([2]; aqueous solution, pH dependence): degrades in aqueous solution, with the rate of degradation increasing with decreasing pH
- stability when exposed to light ([2]; light): stable when exposed to light for up to two months
- duration of acid inhibitory effect (gastric acid secretion): more than twenty-four hours
